# Test results as given in patent US20230074545A1, “TREATMENT OF CANCER WITH CDK12/13 INHIBITORS” (Kinnate Biopharma Inc., priority 2019, published 2023).
# Assays:
# Test in all cases: Radiometric kinase panel
# Format in all cases: biochemical
# ACVR1B = target: T1, ACVR1B (Homo sapiens, UniProt P36896)
# T1 construct: purchased ProQinase GmbH (Reaction Biology); host or cells: Sf9 insect cells or E. coli (not specified per kinase)
# Procedure, shortened: (§1)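 Activity was measured radiometrically from [gamma-33P]-ATP incorporation into substrate. The kinases were recombinant human GST- or His-tagged proteins, full-length or active fragments, expressed in Sf9 or E. coli. Compound in 10% DMSO was added before the enzyme/substrate mix, which started the reaction.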
# AKT2 = target: T2, AKT2 (Homo sapiens, UniProt P31751)
# T2 construct: either as full-length or enzymatically active fragments; purchased ProQinase GmbH (Reaction Biology); host or cells: Sf9 insect cells or E. coli (not specified per kinase)
# Procedure, shortened: as §1
# CDK20/CycT1 = target: T3, CDK20/CycT1 (Homo sapiens, UniProt Q8IZL9)
# T3 construct: either as full-length or enzymatically active fragments; purchased ProQinase GmbH (Reaction Biology)
# T3 sequence (Q8IZL9 whole entry, the tested form may be a part): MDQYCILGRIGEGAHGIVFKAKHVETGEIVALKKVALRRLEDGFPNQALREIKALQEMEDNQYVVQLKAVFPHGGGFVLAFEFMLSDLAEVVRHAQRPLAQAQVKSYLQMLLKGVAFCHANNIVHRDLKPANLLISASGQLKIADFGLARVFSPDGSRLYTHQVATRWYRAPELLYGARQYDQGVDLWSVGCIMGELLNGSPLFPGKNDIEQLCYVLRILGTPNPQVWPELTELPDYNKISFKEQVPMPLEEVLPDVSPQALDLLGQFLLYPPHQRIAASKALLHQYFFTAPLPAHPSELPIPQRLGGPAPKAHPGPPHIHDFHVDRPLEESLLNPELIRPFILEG
# T3 sequence (O60563 whole entry partner, the tested form may be a part): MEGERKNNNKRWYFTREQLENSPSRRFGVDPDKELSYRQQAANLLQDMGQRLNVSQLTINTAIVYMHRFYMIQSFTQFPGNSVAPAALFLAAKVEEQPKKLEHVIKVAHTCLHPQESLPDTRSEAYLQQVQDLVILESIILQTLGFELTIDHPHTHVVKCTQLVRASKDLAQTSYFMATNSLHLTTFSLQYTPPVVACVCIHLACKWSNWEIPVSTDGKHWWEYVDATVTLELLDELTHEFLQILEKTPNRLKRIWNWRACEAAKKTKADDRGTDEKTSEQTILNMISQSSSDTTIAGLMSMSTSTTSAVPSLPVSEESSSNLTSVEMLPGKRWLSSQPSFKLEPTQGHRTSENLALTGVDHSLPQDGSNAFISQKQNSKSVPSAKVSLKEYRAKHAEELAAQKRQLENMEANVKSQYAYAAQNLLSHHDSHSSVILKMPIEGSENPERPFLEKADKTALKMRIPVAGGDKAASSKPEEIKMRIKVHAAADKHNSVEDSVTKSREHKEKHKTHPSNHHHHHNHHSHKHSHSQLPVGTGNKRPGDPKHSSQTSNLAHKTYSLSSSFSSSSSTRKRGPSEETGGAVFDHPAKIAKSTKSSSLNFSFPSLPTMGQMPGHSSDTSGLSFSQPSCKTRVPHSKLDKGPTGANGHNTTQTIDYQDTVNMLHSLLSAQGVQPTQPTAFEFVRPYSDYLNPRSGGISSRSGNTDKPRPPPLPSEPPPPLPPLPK
# Procedure, shortened: as §1
# CLK1 = target: T4, CLK1 (Homo sapiens, UniProt P49759)
# T4 construct: either as full-length or enzymatically active fragments; purchased ProQinase GmbH (Reaction Biology)
# Procedure, shortened: as §1
# COT = target: T5, COT (Homo sapiens, UniProt P41279)
# T5 construct: either as full-length or enzymatically active fragments; purchased ProQinase GmbH (Reaction Biology)
# T5 sequence (P41279 whole entry, the tested form may be a part): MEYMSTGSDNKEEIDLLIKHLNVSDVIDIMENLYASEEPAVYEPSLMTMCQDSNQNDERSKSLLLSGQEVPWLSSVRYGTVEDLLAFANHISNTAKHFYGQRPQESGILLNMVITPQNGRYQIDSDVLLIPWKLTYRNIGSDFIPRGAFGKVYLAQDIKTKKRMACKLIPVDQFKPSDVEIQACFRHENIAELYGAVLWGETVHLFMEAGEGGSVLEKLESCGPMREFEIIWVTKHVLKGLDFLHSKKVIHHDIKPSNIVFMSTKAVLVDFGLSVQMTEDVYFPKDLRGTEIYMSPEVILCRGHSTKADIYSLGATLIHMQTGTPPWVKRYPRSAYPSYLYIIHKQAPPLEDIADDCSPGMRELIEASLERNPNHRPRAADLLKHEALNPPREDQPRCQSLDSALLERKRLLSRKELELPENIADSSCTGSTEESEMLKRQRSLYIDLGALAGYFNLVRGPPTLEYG
# Procedure, shortened: as §1
# DYRK4 = target: T6, DYRK4 (Homo sapiens, UniProt Q9NR20)
# T6 construct: either as full-length or enzymatically active fragments; purchased ProQinase GmbH (Reaction Biology)
# Procedure, shortened: as §1
# EPHA5 = target: T7, EPHA5 (Homo sapiens, UniProt P54756)
# T7 construct: either as full-length or enzymatically active fragments; purchased ProQinase GmbH (Reaction Biology)
# Procedure, shortened: as §1
# KIT = target: T8, KIT (Homo sapiens, UniProt P10721)
# T8 construct: either as full-length or enzymatically active fragments; purchased ProQinase GmbH (Reaction Biology)
# T8 sequence (P10721 26-976): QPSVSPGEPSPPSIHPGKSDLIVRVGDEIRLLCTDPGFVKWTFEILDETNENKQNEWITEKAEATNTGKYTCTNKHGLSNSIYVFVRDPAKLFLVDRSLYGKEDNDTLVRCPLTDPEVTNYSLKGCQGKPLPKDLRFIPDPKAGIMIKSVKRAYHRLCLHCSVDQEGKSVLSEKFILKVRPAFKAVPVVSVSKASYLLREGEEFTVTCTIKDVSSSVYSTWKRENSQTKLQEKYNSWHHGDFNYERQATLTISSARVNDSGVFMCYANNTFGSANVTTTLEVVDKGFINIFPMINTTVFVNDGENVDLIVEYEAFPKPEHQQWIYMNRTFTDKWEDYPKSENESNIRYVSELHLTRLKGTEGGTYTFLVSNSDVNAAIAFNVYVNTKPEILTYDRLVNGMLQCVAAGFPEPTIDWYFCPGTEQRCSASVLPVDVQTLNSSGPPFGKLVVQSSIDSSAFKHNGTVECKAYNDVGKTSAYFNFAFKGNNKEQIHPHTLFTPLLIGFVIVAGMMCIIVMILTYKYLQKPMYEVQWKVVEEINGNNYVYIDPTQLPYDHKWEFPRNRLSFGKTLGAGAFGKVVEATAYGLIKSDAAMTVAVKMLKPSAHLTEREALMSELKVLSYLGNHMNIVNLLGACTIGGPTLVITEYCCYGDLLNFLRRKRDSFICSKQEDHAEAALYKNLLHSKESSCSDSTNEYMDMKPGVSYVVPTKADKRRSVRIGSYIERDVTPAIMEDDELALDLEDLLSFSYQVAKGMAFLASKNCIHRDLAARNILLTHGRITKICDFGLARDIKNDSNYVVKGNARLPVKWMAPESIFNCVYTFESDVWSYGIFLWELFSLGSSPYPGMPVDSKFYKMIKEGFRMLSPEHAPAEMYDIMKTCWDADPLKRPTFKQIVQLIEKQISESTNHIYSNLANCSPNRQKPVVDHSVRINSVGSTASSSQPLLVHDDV
# Procedure, shortened: as §1
# MAP3K10 = target: T9, MAP3K10 (Homo sapiens, UniProt Q02779)
# T9 construct: either as full-length or enzymatically active fragments; purchased ProQinase GmbH (Reaction Biology)
# Procedure, shortened: as §1
# MAP4K5 = target: T10, MAP4K5 (Homo sapiens, UniProt Q9Y4K4)
# T10 construct: purchased ProQinase GmbH (Reaction Biology)
# Procedure, shortened: as §1
# MASTL = target: T11, MASTL (Homo sapiens, UniProt Q96GX5)
# T11 construct: either as full-length or enzymatically active fragments; purchased ProQinase GmbH (Reaction Biology); host or cells: Sf9 insect cells or E. coli (not specified per kinase)
# Procedure, shortened: as §1
# MERTK = target: T12, MERTK (Homo sapiens, UniProt Q12866)
# T12 construct: either as full-length or enzymatically active fragments; purchased ProQinase GmbH (Reaction Biology)
# Procedure, shortened: as §1
# NEK4 = target: T13, NEK4 (Homo sapiens, UniProt P51957)
# T13 construct: purchased ProQinase GmbH (Reaction Biology)
# Procedure, shortened: as §1
# NIK = target: T14, NIK (Homo sapiens, UniProt Q99558)
# T14 construct: purchased ProQinase GmbH (Reaction Biology)
# Procedure, shortened: as §1
# PHKG1 = target: T15, PHKG1 (Homo sapiens, UniProt Q16816)
# T15 construct: either as full-length or enzymatically active fragments; purchased ProQinase GmbH (Reaction Biology)
# T15 sequence (Q16816 whole entry, the tested form may be a part): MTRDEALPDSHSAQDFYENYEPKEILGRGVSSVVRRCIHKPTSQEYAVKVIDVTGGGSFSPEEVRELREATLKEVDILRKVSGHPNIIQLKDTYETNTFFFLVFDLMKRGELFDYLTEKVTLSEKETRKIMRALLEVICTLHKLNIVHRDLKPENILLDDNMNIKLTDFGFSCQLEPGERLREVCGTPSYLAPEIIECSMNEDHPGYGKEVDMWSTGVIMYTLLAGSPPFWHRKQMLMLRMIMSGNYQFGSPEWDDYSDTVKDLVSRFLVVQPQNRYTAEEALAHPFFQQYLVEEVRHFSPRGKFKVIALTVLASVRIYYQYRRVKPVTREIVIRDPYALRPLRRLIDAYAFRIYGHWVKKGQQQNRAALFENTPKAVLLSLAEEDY
# Procedure, shortened: as §1
# PKCiota = target: T16, PKCiota (Homo sapiens, UniProt P41743)
# T16 construct: either as full-length or enzymatically active fragments; purchased ProQinase GmbH (Reaction Biology)
# Procedure, shortened: as §1
# PKCmu = target: T17, PKCmu (Homo sapiens, UniProt Q15139)
# T17 construct: either as full-length or enzymatically active fragments; purchased ProQinase GmbH (Reaction Biology)
# T17 sequence (Q15139 whole entry, the tested form may be a part): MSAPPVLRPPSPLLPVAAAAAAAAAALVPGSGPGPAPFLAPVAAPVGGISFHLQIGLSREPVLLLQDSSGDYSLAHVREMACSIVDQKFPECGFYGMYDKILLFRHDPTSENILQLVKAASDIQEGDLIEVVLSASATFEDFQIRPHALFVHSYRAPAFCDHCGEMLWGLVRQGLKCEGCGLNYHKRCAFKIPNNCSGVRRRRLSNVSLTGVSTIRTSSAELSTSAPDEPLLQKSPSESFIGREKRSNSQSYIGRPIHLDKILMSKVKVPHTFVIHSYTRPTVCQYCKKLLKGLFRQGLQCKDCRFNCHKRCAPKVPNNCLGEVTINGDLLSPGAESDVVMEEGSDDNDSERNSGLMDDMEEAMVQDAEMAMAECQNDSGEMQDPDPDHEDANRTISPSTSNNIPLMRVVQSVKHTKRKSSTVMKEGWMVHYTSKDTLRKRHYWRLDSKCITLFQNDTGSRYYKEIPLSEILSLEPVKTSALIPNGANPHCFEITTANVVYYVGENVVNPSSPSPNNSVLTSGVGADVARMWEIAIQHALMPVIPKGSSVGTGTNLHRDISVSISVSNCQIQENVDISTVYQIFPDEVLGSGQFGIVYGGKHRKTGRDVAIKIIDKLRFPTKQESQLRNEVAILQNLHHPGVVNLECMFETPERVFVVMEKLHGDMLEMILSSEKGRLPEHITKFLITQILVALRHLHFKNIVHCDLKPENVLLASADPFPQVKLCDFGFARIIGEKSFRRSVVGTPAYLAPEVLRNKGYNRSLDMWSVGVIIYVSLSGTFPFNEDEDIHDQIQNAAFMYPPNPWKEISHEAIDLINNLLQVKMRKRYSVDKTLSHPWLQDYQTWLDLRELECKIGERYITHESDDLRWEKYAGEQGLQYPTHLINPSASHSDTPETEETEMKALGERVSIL
# Procedure, shortened: as §1
# PLK1 = target: T18, PLK1 (Homo sapiens, UniProt P53350)
# T18 construct: either as full-length or enzymatically active fragments; purchased ProQinase GmbH (Reaction Biology)
# Procedure, shortened: as §1
# PRK2 = target: T19, PRK2 (Homo sapiens, UniProt Q16513)
# T19 construct: either as full-length or enzymatically active fragments; purchased ProQinase GmbH (Reaction Biology)
# Procedure, shortened: as §1
# PRKG1 = target: T20, PRKG1 (Homo sapiens, UniProt Q13976)
# T20 construct: either as full-length or enzymatically active fragments; purchased ProQinase GmbH (Reaction Biology)
# Procedure, shortened: as §1
# SGK2 = target: T21, SGK2 (Homo sapiens, UniProt Q9HBY8)
# T21 construct: purchased ProQinase GmbH (Reaction Biology); host or cells: Sf9 insect cells or E. coli (not specified per kinase)
# T21 sequence (Q9HBY8 whole entry): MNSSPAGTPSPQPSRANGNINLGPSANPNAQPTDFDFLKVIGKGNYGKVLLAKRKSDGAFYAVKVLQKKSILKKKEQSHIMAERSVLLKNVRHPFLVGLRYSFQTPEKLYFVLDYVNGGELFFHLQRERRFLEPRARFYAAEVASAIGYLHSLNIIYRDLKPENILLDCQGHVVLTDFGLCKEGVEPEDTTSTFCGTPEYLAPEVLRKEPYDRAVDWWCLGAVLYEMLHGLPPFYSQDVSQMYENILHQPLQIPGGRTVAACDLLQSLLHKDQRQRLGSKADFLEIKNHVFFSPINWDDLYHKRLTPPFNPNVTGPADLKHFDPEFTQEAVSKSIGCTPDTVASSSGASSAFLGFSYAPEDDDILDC
# Procedure, shortened: as §1
# SIK1 = target: T22, SIK1 (Homo sapiens, UniProt P57059)
# T22 construct: either as full-length or enzymatically active fragments; purchased ProQinase GmbH (Reaction Biology)
# Procedure, shortened: as §1
# SNARK = target: T23, SNARK (Homo sapiens, UniProt Q9H093)
# T23 construct: purchased ProQinase GmbH (Reaction Biology)
# Procedure, shortened: as §1
# SNK = target: T24, SNK (Homo sapiens, UniProt Q9NYY3)
# T24 construct: either as full-length or enzymatically active fragments; purchased ProQinase GmbH (Reaction Biology); host or cells: Sf9 insect cells or E. coli (not specified per kinase)
# Procedure, shortened: as §1
# STK17A = target: T25, STK17A (Homo sapiens, UniProt Q9UEE5)
# T25 construct: either as full-length or enzymatically active fragments; purchased ProQinase GmbH (Reaction Biology)
# Procedure, shortened: as §1
# TRKB = target: T26, TRKB (Homo sapiens, UniProt Q16620)
# T26 construct: purchased ProQinase GmbH (Reaction Biology)
# T26 sequence (Q16620 32-822): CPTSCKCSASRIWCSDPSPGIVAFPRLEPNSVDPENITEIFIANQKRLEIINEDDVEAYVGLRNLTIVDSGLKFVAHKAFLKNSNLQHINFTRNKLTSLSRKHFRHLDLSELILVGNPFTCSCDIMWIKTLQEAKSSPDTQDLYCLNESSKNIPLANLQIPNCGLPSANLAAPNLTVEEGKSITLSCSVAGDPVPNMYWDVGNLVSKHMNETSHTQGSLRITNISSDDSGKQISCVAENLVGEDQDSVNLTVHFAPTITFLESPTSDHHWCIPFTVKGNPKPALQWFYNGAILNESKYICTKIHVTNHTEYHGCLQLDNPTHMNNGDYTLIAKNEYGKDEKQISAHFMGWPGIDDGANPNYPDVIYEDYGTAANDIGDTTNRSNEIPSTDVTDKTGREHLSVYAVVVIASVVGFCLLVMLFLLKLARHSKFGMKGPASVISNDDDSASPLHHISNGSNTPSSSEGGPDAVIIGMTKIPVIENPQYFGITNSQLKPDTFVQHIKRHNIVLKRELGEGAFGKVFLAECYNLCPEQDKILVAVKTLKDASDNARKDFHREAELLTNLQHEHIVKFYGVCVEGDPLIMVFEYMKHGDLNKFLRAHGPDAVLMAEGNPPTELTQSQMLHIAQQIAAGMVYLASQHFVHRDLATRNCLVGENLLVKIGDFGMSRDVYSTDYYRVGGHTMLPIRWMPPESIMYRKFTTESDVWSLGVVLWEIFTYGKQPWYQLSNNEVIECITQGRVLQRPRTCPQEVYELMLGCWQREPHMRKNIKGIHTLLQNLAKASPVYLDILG
# Procedure, shortened: as §1
# VRK1 = target: T27, VRK1 (Homo sapiens, UniProt Q99986)
# T27 construct: either as full-length or enzymatically active fragments; purchased ProQinase GmbH (Reaction Biology)
# Procedure, shortened: as §1
# p38alpha = target: T28, p38alpha (Homo sapiens, UniProt Q16539)
# T28 construct: either as full-length or enzymatically active fragments; purchased ProQinase GmbH (Reaction Biology)
# Procedure, shortened: as §1
smiles,measurement,setting,value
"C=CC(=O)Nc1ccc(C(=O)N2CC[C@@H](Nc3ncc(C#N)cn3)C2)cc1 [Compound 4, (R)-N-(4-(3-((5-cyanopyrimidin-2-yl)amino)pyrrolidine-1-carbonyl)phenyl)acrylamide]",inhibition at 1 µM,ACVR1B,1%
same,inhibition at 1 µM,AKT2,11%
same,inhibition at 1 µM,CDK20/CycT1,5%
same,inhibition at 1 µM,CLK1,-3%
same,inhibition at 1 µM,COT,6%
same,inhibition at 1 µM,DYRK4,-7%
same,inhibition at 1 µM,EPHA5,-8%
same,inhibition at 1 µM,KIT,-4%
same,inhibition at 1 µM,MAP3K10,-5%
same,inhibition at 1 µM,MAP4K5,0%
same,inhibition at 1 µM,MASTL,11%
same,inhibition at 1 µM,MERTK,-8%
same,inhibition at 1 µM,NEK4,-1%
same,inhibition at 1 µM,NIK,-2%
same,inhibition at 1 µM,PHKG1,18%
same,inhibition at 1 µM,PKCiota,-4%
same,inhibition at 1 µM,PKCmu,3%
same,inhibition at 1 µM,PLK1,7%
same,inhibition at 1 µM,PRK2,2%
same,inhibition at 1 µM,PRKG1,-12%
same,inhibition at 1 µM,SGK2,1%
same,inhibition at 1 µM,SIK1,7%
same,inhibition at 1 µM,SNARK,0%
same,inhibition at 1 µM,SNK,9%
same,inhibition at 1 µM,STK17A,-4%
same,inhibition at 1 µM,TRKB,-1%
same,inhibition at 1 µM,VRK1,2%
same,inhibition at 1 µM,p38alpha,3%
